Earlier results as cited in PubChem BioAssay AID1259409 (Chemical Carcinogenesis Research Information System (CCRIS), 2018).

Test system: rodent chemically induced tumor inhibition, incidence and multiplicity
Assay: CCRIS tumor inhibitor studies

C[C@H]1CC[C@@]2(C)C(=CC[C@@H]3[C@@H]2CC[C@]2(C)C(=O)CC[C@@H]32)C1
tumour outcome (control, treated, inhibition, significance) (Carcinogen: 7,12-DIMETHYLBENZ[A]ANTHRACENE, 57-97-6, Dose [Inhibitor]: 100 UG IN 0.2 ML ACETONE 1 HR BEFORE EACH WEEKLY APPLICATION OF DMBA (STUDY DURATION: 290 D), Route [Inhibitor]: DERMAL, Species: MOUSE, Strain/Sex: CD-1/FEMALE, Target Tissue: Type of Lesion: SKIN: CARCINOMA, Dose [Carcinogen]: 200 NMOL AT 6-7 WK OF AGE THEN 100 NMOL IN 0.2 ML ACETONE 1 WK BEGINNING 2 WK LATER, Promoter: NONE USED): 14/28 (50%), 1/28 (4%), 92%, p<0.001 | outcome (Carcinogen: 7,12-DIMETHYLBENZ[A]ANTHRACENE, 57-97-6, Dose [Inhibitor]: 400 UG IN 0.2 ML ACETONE 1 HR BEFORE EACH WEEKLY APPLICATION OF DMBA (STUDY DURATION: 290 D), Route [Inhibitor]: DERMAL, Species: MOUSE, Strain/Sex: CD-1/FEMALE, Target Tissue: Type of Lesion: SKIN: CARCINOMA, Dose [Carcinogen]: 200 NMOL AT 6-7 WK OF AGE THEN 100 NMOL IN 0.2 ML ACETONE 1/WK BEGINNING 2 WK LATER, Promoter: NONE USED): 14/28 (50%), 3/29 (10), 80%, p<0.001

C=C(C)C1C=CC(C)(O)CC1 (centres undefined)
tumour outcome (control, treated, inhibition, significance) (Carcinogen: BENZO[A]PYRENE, 50-32-8, Dose [Inhibitor]: 0, 20 MG 3/WK FOR 4 WK ON DAYS OTHER THAN THE CARCINOGEN TREATMENT (STUDY DURATION: 20 WK), Route [Inhibitor]: GAVAGE, Species: MOUSE, Strain/Sex: STRAIN-A/FEMALE, Target Tissue: Type of Lesion: FORESTOMACH: TUMOR, Dose [Carcinogen]: 1 MG IN 0.2 ML COTTONSEED OIL 2/WK FOR 4 WK, Promoter: NONE USED): 13/19 (68%), 7/14 (50%), 26%, not significant

c1cnc2c(c1)ccc1cccnc12
tumour outcome (control, treated, inhibition, significance) (Dose [Inhibitor]: 0, 15 MG/KG BW EVERY OTHER DAY BEGINNING 1 WK AFTER CARCINOGEN DOSING THROUGH WK 52 WK (STUDY DURATION: 52 WK), Route [Inhibitor]: INTRAPERITONEAL, Species: RAT, Strain/Sex: WISTAR/MALE, Target Tissue: Type of Lesion: STOMACH: ADENOCARCINOMA, Dose [Carcinogen]: 25 UG/ML IN DRINKING WATER FOR 25 WK, Promoter: SODIUM CHLORIDE (7647-14-5)): 19/20 (95%), 9/20 (45%), 53%, p< 0.001 | tumour outcome (control, treated, inhibition, significance) (Dose [Inhibitor]: 0, 30 MG/KG BW EVERY OTHER DAY BEGINNING 1 WK AFTER CARCINOGEN DOSING THROUGH WK 52 WK (STUDY DURATION: 52 WK), Route [Inhibitor]: INTRAPERITONEAL, Species: RAT, Strain/Sex: WISTAR/MALE, Target Tissue: Type of Lesion: STOMACH: ADENOCARCINOMA, Dose [Carcinogen]: 25 UG/ML IN DRINKING WATER FOR 25 WK, Promoter: SODIUM CHLORIDE (7647-14-5)): 19/20 (95%), 7/20 (35%), 63%, p< 0.01

NC(C[Se][Se]CC(N)C(=O)O)C(=O)O (centres undefined)
tumour outcome (control, treated, inhibition, significance) (Carcinogen: 7,12-DIMETHYLBENZ[A]ANTHRACENE, 57-97-6, Dose [Inhibitor]: 0, 0.2 PPM IN DIET BEGINNING 3 D PRIOR TO CARCINOGEN DOSE AND CONTINUING FOR 8 MO (STUDY DURATION: 8 MO), Route [Inhibitor]: ORAL, Species: MOUSE, Strain/Sex: BALB/FEMALE, Target Tissue: Type of Lesion: MAMMARY GLAND: ADENOCARCINOMA, Dose [Carcinogen]: 1 MG/WK FOR 6 WK, Promoter: NONE USED): 12/31 (39%), 8/28 (29%), 26%, not calculated | tumour outcome (control, treated, inhibition, significance) (Carcinogen: 7,12-DIMETHYLBENZ[A]ANTHRACENE, 57-97-6, Dose [Inhibitor]: 0, 2 PPM IN DIET BEGINNING 3 D PRIOR TO CARCINOGEN DOSE AND CONTINUING FOR 8 MO (STUDY DURATION: 8 MO), Route [Inhibitor]: ORAL, Species: MOUSE, Strain/Sex: BALB/FEMALE, Target Tissue: Type of Lesion: MAMMARY GLAND: ADENOCARCINOMA, Dose [Carcinogen]: 1 MG/WK FOR 6 WK, Promoter: NONE USED): 12/31 (39%), 7/24 (29%), 26%, not calculated

C=CC1=C(C)C2=NC1=CC1=NC(=CC3=C(C)C4=C(O)[C@H](C(=O)OC)C(=C5NC(=C2)[C@@H](C)[C@@H]5CCC(=O)O)C4=N3)C(CC)=C1C
tumour outcome (control, treated, inhibition, significance) (Carcinogen: 7,12-DIMETHYLBENZ[A]ANTHRACENE, 57-97-6, Dose [Inhibitor]: 0, 16 NMOL IN 0.1 ML ACETONE 2/WK FOR 20 WK APPLIED 40 MIN PRIOR TO EACH PROMOTER DOSE (STUDY DURATION: 21 WK), Route [Inhibitor]: DERMAL, Species: MOUSE, Strain/Sex: ICR/FEMALE, Target Tissue: Type of Lesion: SKIN: TUMOR, Dose [Carcinogen]: 0.19 UMOL IN 0.1 ML ACETONE ONCE, Promoter: 12-O-TETRADECANOYLPHORBOL-13-ACETATE, 16561-29-8): 100%, 72%, 28%, p<0.005 | tumour outcome (control, treated, inhibition, significance) (Carcinogen: 7,12-DIMETHYLBENZ[A]ANTHRACENE, 57-97-6, Dose [Inhibitor]: 0, 160 NMOL IN 0.1 ML ACETONE 2/WK FOR 20 WK APPLIED 40 MIN PRIOR TO EACH PROMOTER DOSE (STUDY DURATION: 21 WK), Route [Inhibitor]: DERMAL, Species: MOUSE, Strain/Sex: ICR/FEMALE, Target Tissue: Type of Lesion: SKIN: TUMOR, Dose [Carcinogen]: 0.19 UMOL IN 0.1 ML ACETONE ONCE, Promoter: 12-O-TETRADECANOYLPHORBOL-13-ACETATE, 16561-29-8): 100%, 69%, 31%, p<0.005
